Results published in PubChem BioAssay AID2060483 (Molecular Pharmacology Branch, DTP, NCI, 2025).
Values belong to the compound of their own block, whether it stands above or below them.

System: K24384-001-R-PDC complex spheroids, viability
Test: Anticancer human tumor K24384-001-R-PDC patient-derived pancreatic adenocarcinoma cell line growth inhibition [GQUAD]
Conditions: for IC50: curve of first compound; for viability, T/C: stronger effect = lower value
Method in brief: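 Multi-cell-type spheroids of tumor cells with HUVEC and mesenchymal stem cells, treated with drug combinations. Concentrations descend in half-log steps from near clinical Cmax, or from 10 microM where Cmax is unknown; viability read-out.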

[1] = second compound 0.0316 µM, first compound 0.0316 µM
[2] = second compound 0.0316 µM, first compound 0.316 µM
[3] = second compound 0.1 µM, first compound 0.0316 µM
[4] = second compound 0.1 µM, first compound 0.316 µM
[5] = second compound 0.316 µM, first compound 0.0316 µM
[6] = second compound 0.316 µM, first compound 0.316 µM
[7] = second compound 1 µM, first compound 0.0316 µM
[8] = second compound 1 µM, first compound 0.316 µM
[9] = second compound 3.16 µM, first compound 0.0316 µM
[10] = second compound 3.16 µM, first compound 0.316 µM
[11] = second compound 10 µM, first compound 0.0316 µM
[12] = second compound 10 µM, first compound 0.316 µM
[13] = second compound 0.0316 µM, first compound 0.1 µM
[14] = second compound 0.0316 µM, first compound 1 µM
[15] = second compound 0.0316 µM, first compound 3.16 µM
[16] = second compound 0.0316 µM, first compound 10 µM
[17] = second compound 0.1 µM, first compound 0.1 µM
[18] = second compound 0.1 µM, first compound 1 µM
[19] = second compound 0.1 µM, first compound 3.16 µM
[20] = second compound 0.1 µM, first compound 10 µM
[21] = second compound 0.316 µM, first compound 0.1 µM
[22] = second compound 0.316 µM, first compound 1 µM
[23] = second compound 0.316 µM, first compound 3.16 µM
[24] = second compound 0.316 µM, first compound 10 µM
[25] = second compound 1 µM, first compound 0.1 µM
[26] = second compound 1 µM, first compound 1 µM
[27] = second compound 1 µM, first compound 3.16 µM
[28] = second compound 1 µM, first compound 10 µM
[29] = second compound 3.16 µM, first compound 0.1 µM
[30] = second compound 3.16 µM, first compound 1 µM
[31] = second compound 3.16 µM, first compound 3.16 µM
[32] = second compound 3.16 µM, first compound 10 µM
[33] = second compound 10 µM, first compound 0.1 µM
[34] = second compound 10 µM, first compound 1 µM
[35] = second compound 10 µM, first compound 3.16 µM
[36] = second compound 10 µM, first compound 10 µM
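Note: spheroids exposed to compounds for seven days.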

- IC50 (second compound 0.0316 µM): 0.00923 µM
- IC50 (second compound 0.1 µM): 0.0083 µM
- IC50 (second compound 0.316 µM): < 0.000999 µM
- IC50 (second compound 1 µM): < 0.000999 µM
- IC50 (second compound 3.16 µM): < 0.000999 µM
- IC50 (second compound 10 µM): < 0.000999 µM
SMILES: CCc1c2c(nc3ccc(O)cc13)-c1cc3c(c(=O)n1C2)COC(=O)[C@]3(O)CC + Cc1cnc(CNC(=O)c2c(=O)c3ccc(N4CCCN(C)CC4)nc3n3c2sc2ccccc23)cn1
- viability, T/C (second compound 0.0316 µM, first compound 0.000999 µM): 73.2%
- viability, T/C (second compound 0.0316 µM, first compound 0.00316 µM): 60.8%
- viability, T/C (second compound 0.0316 µM, first compound 0.00999 µM): 53.2%
- viability, T/C [1]: 29.8%
- viability, T/C (second compound 0.0316 µM, first compound 0.0999 µM): 31.9%
- viability, T/C [2]: 18%
- viability, T/C (second compound 0.1 µM, first compound 0.000999 µM): 50%
- viability, T/C (second compound 0.1 µM, first compound 0.00316 µM): 64.9%
- viability, T/C (second compound 0.1 µM, first compound 0.00999 µM): 45.7%
- viability, T/C [3]: 36.7%
- viability, T/C (second compound 0.1 µM, first compound 0.0999 µM): 29.3%
- viability, T/C [4]: 16.1%
- viability, T/C (second compound 0.316 µM, first compound 0.000999 µM): 41.4%
- viability, T/C (second compound 0.316 µM, first compound 0.00316 µM): 58.4%
- viability, T/C (second compound 0.316 µM, first compound 0.00999 µM): 38.2%
- viability, T/C [5]: 34.8%
- viability, T/C (second compound 0.316 µM, first compound 0.0999 µM): 19.9%
- viability, T/C [6]: 14%
- viability, T/C (second compound 1 µM, first compound 0.000999 µM): 38.8%
- viability, T/C (second compound 1 µM, first compound 0.00316 µM): 41.4%
- viability, T/C (second compound 1 µM, first compound 0.00999 µM): 31.3%
- viability, T/C [7]: 23.8%
- viability, T/C (second compound 1 µM, first compound 0.0999 µM): 18.4%
- viability, T/C [8]: 6.84%
- viability, T/C (second compound 3.16 µM, first compound 0.000999 µM): 37.4%
- viability, T/C (second compound 3.16 µM, first compound 0.00316 µM): 43.7%
- viability, T/C (second compound 3.16 µM, first compound 0.00999 µM): 28.8%
- viability, T/C [9]: 20.1%
- viability, T/C (second compound 3.16 µM, first compound 0.0999 µM): 8.56%
- viability, T/C [10]: 0.57%
- viability, T/C (second compound 10 µM, first compound 0.000999 µM): 29.2%
- viability, T/C (second compound 10 µM, first compound 0.00316 µM): 14.6%
- viability, T/C (second compound 10 µM, first compound 0.00999 µM): 13.3%
- viability, T/C [11]: 0.4%
- viability, T/C (second compound 10 µM, first compound 0.0999 µM): 0.25%
- viability, T/C [12]: 0.2%

SMILES: Cc1cccc(N(C)C(=O)C2C(O)CCN2c2nc(C)cc(C(F)(F)F)c2C#N)c1 (stereo unspecified) + CN(C)c1ccc(Nc2c3ccc(NC(=O)CCN4CCCC4)cc3nc3cc(NC(=O)CCN4CCCC4)ccc23)cc1
- IC50 (second compound 0.0316 µM): > 10 µM
- IC50 (second compound 0.1 µM): > 10 µM
- IC50 (second compound 0.316 µM): > 10 µM
- IC50 (second compound 1 µM): > 10 µM
- IC50 (second compound 3.16 µM): > 10 µM
- IC50 (second compound 10 µM): 3.01 µM
- viability, T/C [1]: 95.3%
- viability, T/C [13]: 87.9%
- viability, T/C [2]: 91.3%
- viability, T/C [14]: 90.6%
- viability, T/C [15]: 109%
- viability, T/C [16]: 111%
- viability, T/C [3]: 101%
- viability, T/C [17]: 110%
- viability, T/C [4]: 106%
- viability, T/C [18]: 102%
- viability, T/C [19]: 100%
- viability, T/C [20]: 97.6%
- viability, T/C [5]: 90.2%
- viability, T/C [21]: 81.9%
- viability, T/C [6]: 85.4%
- viability, T/C [22]: 87.7%
- viability, T/C [23]: 102%
- viability, T/C [24]: 95.3%
- viability, T/C [7]: 98%
- viability, T/C [25]: 83.6%
- viability, T/C [8]: 94.7%
- viability, T/C [26]: 107%
- viability, T/C [27]: 91.8%
- viability, T/C [28]: 94.3%
- viability, T/C [9]: 93%
- viability, T/C [29]: 86.2%
- viability, T/C [10]: 80.4%
- viability, T/C [30]: 104%
- viability, T/C [31]: 117%
- viability, T/C [32]: 74.4%
- viability, T/C [11]: 89.7%
- viability, T/C [33]: 79.8%
- viability, T/C [12]: 76.2%
- viability, T/C [34]: 61.8%
- viability, T/C [35]: 51.1%
- viability, T/C [36]: 31.9%

SMILES: O=C(c1cc(Cc2n[nH]c(=O)c3ccccc23)ccc1F)N1CCN(C(=O)C2CC2)CC1 + CN(C)c1ccc(Nc2c3ccc(NC(=O)CCN4CCCC4)cc3nc3cc(NC(=O)CCN4CCCC4)ccc23)cc1
- IC50 (second compound 0.0316 µM): > 10 µM
- IC50 (second compound 0.1 µM): > 10 µM
- IC50 (second compound 0.316 µM): > 10 µM
- IC50 (second compound 1 µM): > 10 µM
- IC50 (second compound 3.16 µM): > 10 µM
- IC50 (second compound 10 µM): > 10 µM
- viability, T/C [1]: 91.5%
- viability, T/C [13]: 87.2%
- viability, T/C [2]: 103%
- viability, T/C [14]: 85.3%
- viability, T/C [15]: 94%
- viability, T/C [16]: 65.3%
- viability, T/C [3]: 98.4%
- viability, T/C [17]: 97%
- viability, T/C [4]: 102%
- viability, T/C [18]: 82.5%
- viability, T/C [19]: 78.7%
- viability, T/C [20]: 76.3%
- viability, T/C [5]: 82.2%
- viability, T/C [21]: 90.1%
- viability, T/C [6]: 102%
- viability, T/C [22]: 81.2%
- viability, T/C [23]: 87.8%
- viability, T/C [24]: 72.2%
- viability, T/C [7]: 85.3%
- viability, T/C [25]: 103%
- viability, T/C [8]: 97.1%
- viability, T/C [26]: 108%
- viability, T/C [27]: 92.9%
- viability, T/C [28]: 71.2%
- viability, T/C [9]: 89.5%
- viability, T/C [29]: 90.6%
- viability, T/C [10]: 92%
- viability, T/C [30]: 100%
- viability, T/C [31]: 86.5%
- viability, T/C [32]: 62.2%
- viability, T/C [11]: 86.4%
- viability, T/C [33]: 89.5%
- viability, T/C [12]: 94.6%
- viability, T/C [34]: 91.2%
- viability, T/C [35]: 86.2%
- viability, T/C [36]: 61.4%
